Assay results from ChEMBL document CHEMBL1201862, “PubChem BioAssay data set” (2004).
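Compound exposure: 48 hours, 5 concentrations, 96-well plates. The concentration for 50% growth inhibition is given as GI50.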 The source made the active and inactive calls. Cut-off read from the data, not from the text of the source: active = GI50 up to about 1.1 µM and inactive = higher.

Tests used:
Assay in all cases: inhibition of tumour cell growth, NCI panel, 48 h
LOX IMVI = system: LOX IMVI
HCC 2998 = system: HCC 2998
A549 = system: A549
HOP-62 = system: HOP-62
SK-MEL-5 = system: SK-MEL-5
NCI-H23 = system: NCI-H23
OVCAR-4 = system: OVCAR-4
RPMI-8226 = system: RPMI-8226
RXF 393 = system: RXF 393
SNB-75 = system: SNB-75
PC-3 = system: PC-3
K562 = system: K562
NCI-H226 = system: NCI-H226
NCI-H460 = system: NCI-H460
EKVX = system: EKVX
NCI-H522 = system: NCI-H522
UACC-257 = system: UACC-257
MOLT-4 = system: MOLT-4
MDA-MB-231 = system: MDA-MB-231
KM12 = system: KM12

Compound | GI50 (LOX IMVI) | GI50 (HCC 2998) | GI50 (A549) | GI50 (HOP-62) | GI50 (SK-MEL-5) | GI50 (NCI-H23) | GI50 (OVCAR-4) | GI50 (RPMI-8226) | GI50 (RXF 393) | GI50 (SNB-75) | GI50 (PC-3) | GI50 (K562) | GI50 (NCI-H226) | GI50 (NCI-H460) | GI50 (EKVX) | GI50 (NCI-H522) | GI50 (UACC-257) | GI50 (MOLT-4) | GI50 (MDA-MB-231) | GI50 (KM12)
CC/C(Cl)=N\OC(=O)Nc1ccc(F)c([N+](=O)[O-])c1 | 15.6 µM (inactive) | 29.4 µM (inactive) | 20.5 µM (inactive) | 19.6 µM (inactive) | 12.4 µM (inactive) | 13.8 µM (inactive) | 4.99 µM (inactive) | 2.94 µM (inactive) | 16.7 µM (inactive) | 18.2 µM (inactive) | 17.3 µM (inactive) | 3.05 µM (inactive) | 33.3 µM (inactive) | 3.73 µM (inactive) | 19.2 µM (inactive) | 1.93 µM (inactive) | 17.6 µM (inactive) | 2.72 µM (inactive) | 18.2 µM (inactive) | 17.5 µM (inactive)
CC(N/N=C(\S)N1CCCC1)c1cccnn1 (stereo not given) | 0.444 µM (active) | 18.5 µM (inactive) | 0.342 µM (active) | 0.312 µM (active) | 0.279 µM (active) | 0.561 µM (active) | 0.695 µM (active) | 0.434 µM (active) | 0.315 µM (active) | 7.52 µM (inactive) | 0.375 µM (active) | 0.632 µM (active) | 1.13 µM (inactive) | 0.306 µM (active) | 0.294 µM (active) | 2.31 µM (inactive) | 0.267 µM (active) | 0.351 µM (active) | 1.03 µM (active) | 0.719 µM (active)
